Measurements published in patent publication US20260297081A1, “COMPOUNDS AND METHODS OF TREATING CANCERS” (Cullgen Inc., priority 2023, published 2026).

Biological target: CDK4 (Homo sapiens, UniProt P11802+Q16531)
Assay: CDK4 percentage degradation in Calu-1 cells (Table 6)
Assay type: cell-based
Set-up: Cells that express cyclin D1-3 and CDK4/6 proteins were treated with heterobifunctional compounds; endogenous in cells; host or cells: Calu-1
Details: 16 hours; for inhibition at 0.04 µM: 40 nM; for inhibition at 0.2 µM: 200 nM
Method: Calu-(cells were treated with heterobifunctional compounds at 40 nM or 200 nM for 16 hours A: protein percentage degradation […]; B: protein percentage degradation <80%, and ≥50%; C: protein percentage degradation <50%, and ≥30%; D; protein percentage degradation […]; -, data not available.
Calu-1, T47D, MCF7, HCC1428 and other cells were cultured at 37° C. with 5% CO2 in RPMI 1640 or DMEM medium supplemented with 10% fetal bovine serum. Cells were authenticated using the short tandem repeat (STR) assays. Mycoplasma test results were negative. For palbo-resistant cell model, T47D cells were cultured long-term to resistance in the presence of 1 μM Palbociclib. Cells were deemed resistant when growing in the presence of Palbo at the same rate as parental cells.
Cultured cells were washed with cold PBS once and lysed in cold RIPA buffer supplemented with protease inhibitors and phosphatase inhibitors (Beyotime Biotechnology). The solutions were then incubated at 4 ? for 30 min with gentle agitation to fully lysed cells. Cell lysates were centrifuged at 13,000 rpm for 10 min at 4 ? and pellets were discarded. Total protein concentrations in the lysates were determined following BCA assays (Beyotime Biotechnology). Cell lysates were mixed with Laemmli loading buffer and heated at 99° C. for 5 min. Proteins were resolved on SDS-PAGE and visualized using Western ECL Substrate kits on a ChemiDoc MP Imaging system (Bio-Rad). Protein bands were quantitated using the Image Lab software provided by Bio-Rad.

Chain of CDK4 (P11802 2-303 limits assumed): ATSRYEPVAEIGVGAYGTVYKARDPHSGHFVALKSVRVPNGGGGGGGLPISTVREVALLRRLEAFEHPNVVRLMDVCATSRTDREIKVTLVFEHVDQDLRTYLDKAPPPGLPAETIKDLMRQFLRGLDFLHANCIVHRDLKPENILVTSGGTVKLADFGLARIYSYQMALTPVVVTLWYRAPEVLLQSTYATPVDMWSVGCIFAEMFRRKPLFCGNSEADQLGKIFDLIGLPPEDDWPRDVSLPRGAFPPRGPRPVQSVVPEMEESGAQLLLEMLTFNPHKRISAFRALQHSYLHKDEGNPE
Chain of CDK4 (P24385 whole entry partner): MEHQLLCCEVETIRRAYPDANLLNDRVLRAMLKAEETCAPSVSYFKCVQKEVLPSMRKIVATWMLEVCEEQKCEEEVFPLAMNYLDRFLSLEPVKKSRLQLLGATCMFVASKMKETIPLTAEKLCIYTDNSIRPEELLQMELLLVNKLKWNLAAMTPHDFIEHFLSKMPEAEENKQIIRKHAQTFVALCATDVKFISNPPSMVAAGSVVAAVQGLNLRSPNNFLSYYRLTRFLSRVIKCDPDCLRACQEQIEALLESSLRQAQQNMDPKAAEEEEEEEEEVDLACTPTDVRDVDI
Chain of CDK4 (Q16531 2-1140 limits assumed): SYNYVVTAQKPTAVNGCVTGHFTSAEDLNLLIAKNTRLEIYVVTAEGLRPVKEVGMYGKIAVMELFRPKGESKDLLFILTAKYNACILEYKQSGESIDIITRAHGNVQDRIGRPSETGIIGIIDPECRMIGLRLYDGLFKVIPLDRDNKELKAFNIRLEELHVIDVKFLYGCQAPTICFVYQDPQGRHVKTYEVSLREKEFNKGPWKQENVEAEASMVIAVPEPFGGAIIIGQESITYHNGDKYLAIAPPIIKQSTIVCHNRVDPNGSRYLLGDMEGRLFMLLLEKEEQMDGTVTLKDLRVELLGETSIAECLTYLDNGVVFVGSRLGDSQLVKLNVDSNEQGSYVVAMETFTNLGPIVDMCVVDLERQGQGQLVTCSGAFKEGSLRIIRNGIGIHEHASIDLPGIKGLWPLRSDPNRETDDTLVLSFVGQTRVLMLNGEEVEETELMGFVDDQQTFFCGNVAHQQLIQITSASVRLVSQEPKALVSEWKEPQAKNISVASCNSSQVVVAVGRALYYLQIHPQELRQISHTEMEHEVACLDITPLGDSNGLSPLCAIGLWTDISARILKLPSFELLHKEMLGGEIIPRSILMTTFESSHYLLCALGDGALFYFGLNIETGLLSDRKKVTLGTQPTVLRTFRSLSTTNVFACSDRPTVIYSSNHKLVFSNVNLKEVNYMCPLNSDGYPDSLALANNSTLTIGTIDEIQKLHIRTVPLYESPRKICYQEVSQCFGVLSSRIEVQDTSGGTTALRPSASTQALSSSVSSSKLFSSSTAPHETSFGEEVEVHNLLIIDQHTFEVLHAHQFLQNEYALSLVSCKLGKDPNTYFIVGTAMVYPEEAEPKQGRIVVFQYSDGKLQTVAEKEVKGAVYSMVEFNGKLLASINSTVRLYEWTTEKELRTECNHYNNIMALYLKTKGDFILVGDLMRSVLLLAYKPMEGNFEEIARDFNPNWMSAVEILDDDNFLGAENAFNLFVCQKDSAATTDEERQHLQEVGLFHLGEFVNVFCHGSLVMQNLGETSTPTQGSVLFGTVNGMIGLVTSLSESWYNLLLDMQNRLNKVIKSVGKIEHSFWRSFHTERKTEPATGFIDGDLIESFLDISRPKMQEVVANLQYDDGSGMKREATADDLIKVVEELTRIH

SMILES | inhibition at 0.04 µM [%] | inhibition at 0.2 µM [%]
CNc1ccc(C(=O)NC2CC(CN(C)C)C2)c(NCCCCCNC(=O)CN2CCN(c3ccc(Nc4ncc5c(C)c(C(C)=O)c(=O)n(C6CCCC6)c5n4)nc3)CC2)n1 (stereo not drawn) [CPD-65, 2-((5-(2-(4-(6-((6-Acetyl-8-cyclopentyl-5-methyl-7-oxo-7,8-dihydropyrido[2,3-d]pyrimidin-2-yl)amino)pyridin-3-yl)piperazin-1-yl)acetamido)pentyl)amino)-N-(3-((dimethylamino)methyl)cyclobutyl)-6-(methylamino)nicotinamide] | < 30 | < 30
CNc1ccc(C(=O)NC2CC3(C2)CC(N(C)C)C3)c(NCCCCCNC(=O)CN2CCN(c3ccc(Nc4ncc5c(C)c(C(C)=O)c(=O)n(C6CCCC6)c5n4)nc3)CC2)n1 (stereo not drawn) [CPD-67, 2-((5-(2-(4-(6-((6-Acetyl-8-cyclopentyl-5-methyl-7-oxo-7,8-dihydropyrido[2,3-d]pyrimidin-2-yl)amino)pyridin-3-yl)piperazin-1-yl)acetamido)pentyl)amino)-N-(6-(dimethylamino)spiro[3.3]heptan-2-yl)-6-(methylamino)nicotinamide] | < 30 | < 30
CC(=O)c1c(C)c2cnc(Nc3ccc(N4CCN(CC(=O)NCCCCCNc5nc(C(F)(F)F)ccc5C(=O)Nc5ccc(N(C)C)nn5)CC4)cn3)nc2n(C2CCCC2)c1=O [CPD-68, 2-((5-(2-(4-(6-((6-Acetyl-8-cyclopentyl-5-methyl-7-oxo-7,8-dihydropyrido[2,3-d]pyrimidin-2-yl)amino)pyridin-3-yl)piperazin-1-yl)acetamido)pentyl)amino)-N-(6-(dimethylamino)pyridazin-3-yl)-6-(trifluoromethyl)nicotinamide] | 30 to 50 | 50 to 80
CNc1ccc(C(=O)Nc2ccc3c(n2)CCC3)c(NC2CC3(CC(NC(=O)CN4CCN(c5ccc(Nc6ncc7c(C)c(C(C)=O)c(=O)n(C8CCCC8)c7n6)nc5)CC4)C3)C2)n1 (stereo not drawn) [CPD-69, 2-((6-(2-(4-(6-((6-Acetyl-8-cyclopentyl-5-methyl-7-oxo-7,8-dihydropyrido[2,3-d]pyrimidin-2-yl)amino)pyridin-3-yl)piperazin-1-yl)acetamido)spiro[3.3]heptan-2-yl)amino)-N-(6,7-dihydro-5H-cyclopenta[b]pyridin-2-yl)-6-(methylamino)nicotinamide] | 30 to 50 | 50 to 80
CNc1ccc(C(=O)Nc2cc(C)n(C)n2)c(NC2CC3(CC(NC(=O)CN4CCN(c5ccc(Nc6ncc7c(C)c(C(C)=O)c(=O)n(C8CCCC8)c7n6)nc5)CC4)C3)C2)n1 (stereo not drawn) [CPD-70, 2-((6-(2-(4-(6-((6-Acetyl-8-cyclopentyl-5-methyl-7-oxo-7,8-dihydropyrido[2,3-d]pyrimidin-2-yl)amino)pyridin-3-yl)piperazin-1-yl)acetamido)spiro[3.3]heptan-2-yl)amino)-N-(1,5-dimethyl-1H-pyrazol-3-yl)-6-(methylamino)nicotinamide] | 50 to 80 | 50 to 80
CNc1ccc(C(=O)N(C)c2ccc(N(C)C)nn2)c(NCCCCCNC(=O)CN2CCN(c3ccc(Nc4ncc5c(C)c(C(C)=O)c(=O)n(C6CCCC6)c5n4)nc3)CC2)n1 [CPD-71, 2-((5-(2-(4-(6-((6-acetyl-8-cyclopentyl-5-methyl-7-oxo-7,8-dihydropyrido[2,3-d]pyrimidin-2-yl)amino)pyridin-3-yl)piperazin-1-yl)acetamido)pentyl)amino)-N-(6-(dimethylamino)pyridazin-3-yl)-N-methyl-6-(methylamino)nicotinamide] | < 30 | < 30
CNc1ccc(C(=O)Nc2cccc(C3CC3)n2)c(NC2CC3(CC(NC(=O)CN4CCN(c5ccc(Nc6ncc7c(C)c(C(C)=O)c(=O)n(C8CCCC8)c7n6)nc5)CC4)C3)C2)n1 (stereo not drawn) [CPD-72, 2-((6-(2-(4-(6-((6-Acetyl-8-cyclopentyl-5-methyl-7-oxo-7,8-dihydropyrido[2,3-d]pyrimidin-2-yl)amino)pyridin-3-yl)piperazin-1-yl)acetamido)spiro[3.3]heptan-2-yl)amino)-N-(6-cyclopropylpyridin-2-yl)-6-(methylamino)nicotinamide] | 50 to 80 | > 80
CNc1ccc(C(=O)Nc2ccc(C3CC3)nc2)c(NC2CC3(CC(NC(=O)CN4CCN(c5ccc(Nc6ncc7c(C)c(C(C)=O)c(=O)n(C8CCCC8)c7n6)nc5)CC4)C3)C2)n1 (stereo not drawn) [CPD-74, 2-((6-(2-(4-(6-((6-Acetyl-8-cyclopentyl-5-methyl-7-oxo-7,8-dihydropyrido[2,3-d]pyrimidin-2-yl)amino)pyridin-3-yl)piperazin-1-yl)acetamido)spiro[3.3]heptan-2-yl)amino)-N-(6-cyclopropylpyridin-3-yl)-6-(methylamino)nicotinamide] | < 30 | < 30
CNc1ccc(C(=O)Nc2cccc(C(C)C)n2)c(NC2CC3(CC(NC(=O)CN4CCN(c5ccc(Nc6ncc7c(C)c(C(C)=O)c(=O)n(C8CCCC8)c7n6)nc5)CC4)C3)C2)n1 (stereo not drawn) [CPD-76, 2-((6-(2-(4-(6-((6-Acetyl-8-cyclopentyl-5-methyl-7-oxo-7,8-dihydropyrido[2,3-d]pyrimidin-2-yl)amino)pyridin-3-yl)piperazin-1-yl)acetamido)spiro[3.3]heptan-2-yl)amino)-N-(6-isopropylpyridin-2-yl)-6-(methylamino)nicotinamide] | < 30 | 30 to 50
CNc1ccc(C(=O)Nc2ccc(=O)[nH]n2)c(NCCCCCNC(=O)CN2CCN(c3ccc(Nc4ncc5c(C)c(C(C)=O)c(=O)n(C6CCCC6)c5n4)nc3)CC2)n1 [CPD-77, 2-((5-(2-(4-(6-((6-Acetyl-8-cyclopentyl-5-methyl-7-oxo-7,8-dihydropyrido[2,3-d]pyrimidin-2-yl)amino)pyridin-3-yl)piperazin-1-yl)acetamido)pentyl)amino)-6-(methylamino)-N-(6-oxo-1,6-dihydropyridazin-3-yl)nicotinamide] | < 30 | < 30
CNc1ccc(C(=O)Nc2ccc(N(C)C)nn2)c(NC2CC3(CC(NCC(=O)N4CCN(c5ccc(Nc6ncc7c(C)c(C(C)=O)c(=O)n(C8CCCC8)c7n6)nc5)CC4)C3)C2)n1 (stereo not drawn) [CPD-78, 2-((6-((2-(4-(6-((6-Acetyl-8-cyclopentyl-5-methyl-7-oxo-7,8-dihydropyrido[2,3-d]pyrimidin-2-yl)amino)pyridin-3-yl)piperazin-1-yl)-2-oxoethyl)amino)spiro[3.3]heptan-2-yl)amino)-N-(6-(dimethylamino)pyridazin-3-yl)-6-(methylamino)nicotinamide] | 50 to 80 | 50 to 80
CNc1ccc(C(=O)Nc2ccc(N(C)C)nn2)c(NC2CC3(CC(CCC(=O)N4CCN(c5ccc(Nc6ncc7c(C)c(C(C)=O)c(=O)n(C8CCCC8)c7n6)nc5)CC4)C3)C2)n1 (stereo not drawn) [CPD-82, 2-((6-(3-(4-(6-((6-Acetyl-8-cyclopentyl-5-methyl-7-oxo-7,8-dihydropyrido[2,3-d]pyrimidin-2-yl)amino)pyridin-3-yl)piperazin-1-yl)-3-oxopropyl)spiro[3.3]heptan-2-yl)amino)-N-(6-(dimethylamino)pyridazin-3-yl)-6-(methylamino)nicotinamide] | 30 to 50 | 30 to 50
CNc1ccc(C(=O)Nc2ccc(N(C)C)nn2)c(NC2CC3(CC(CCCN4CCN(c5ccc(Nc6ncc7c(C)c(C(C)=O)c(=O)n(C8CCCC8)c7n6)nc5)CC4)C3)C2)n1 (stereo not drawn) [CPD-83, 2-((6-(3-(4-(6-((6-Acetyl-8-cyclopentyl-5-methyl-7-oxo-7,8-dihydropyrido[2,3-d]pyrimidin-2-yl)amino)pyridin-3-yl)piperazin-1-yl)propyl)spiro[3.3]heptan-2-yl)amino)-N-(6-(dimethylamino)pyridazin-3-yl)-6-(methylamino)nicotinamide] | < 30 | 30 to 50
CNc1ccc(C(=O)Nc2ccnc(C3CC3)c2)c(NC2CC3(CC(NC(=O)CN4CCN(c5ccc(Nc6ncc7c(C)c(C(C)=O)c(=O)n(C8CCCC8)c7n6)nc5)CC4)C3)C2)n1 (stereo not drawn) [CPD-86, 2-((6-(2-(4-(6-((6-Acetyl-8-cyclopentyl-5-methyl-7-oxo-7,8-dihydropyrido[2,3-d]pyrimidin-2-yl)amino)pyridin-3-yl)piperazin-1-yl)acetamido)spiro[3.3]heptan-2-yl)amino)-N-(2-cyclopropylpyridin-4-yl)-6-(methylamino)nicotinamide] | < 30 | < 30
CNc1ccc(C(=O)Nc2ccc(C(F)(F)F)c(C3CC3)n2)c(NC2CC3(CC(NC(=O)CN4CCN(c5ccc(Nc6ncc7c(C)c(C(C)=O)c(=O)n(C8CCCC8)c7n6)nc5)CC4)C3)C2)n1 (stereo not drawn) [CPD-87, 2-((6-(2-(4-(6-((6-Acetyl-8-cyclopentyl-5-methyl-7-oxo-7,8-dihydropyrido[2,3-d]pyrimidin-2-yl)amino)pyridin-3-yl)piperazin-1-yl)acetamido)spiro[3.3]heptan-2-yl)amino)-N-(6-cyclopropyl-5-(trifluoromethyl)pyridin-2-yl)-6-(methylamino)nicotinamide] | < 30 | < 30
